The text below walks through data of BindingDB's records for doi:10.1074/jbc.M113.518506 (Rudjer Boskovic Institute, 2013).

Experiment [1] addresses T1, Solute carrier organic anion transporter family member (Danio rerio, UniProt A0A8M9PU70).
T1 sequence (A0A8M9PU70 whole entry): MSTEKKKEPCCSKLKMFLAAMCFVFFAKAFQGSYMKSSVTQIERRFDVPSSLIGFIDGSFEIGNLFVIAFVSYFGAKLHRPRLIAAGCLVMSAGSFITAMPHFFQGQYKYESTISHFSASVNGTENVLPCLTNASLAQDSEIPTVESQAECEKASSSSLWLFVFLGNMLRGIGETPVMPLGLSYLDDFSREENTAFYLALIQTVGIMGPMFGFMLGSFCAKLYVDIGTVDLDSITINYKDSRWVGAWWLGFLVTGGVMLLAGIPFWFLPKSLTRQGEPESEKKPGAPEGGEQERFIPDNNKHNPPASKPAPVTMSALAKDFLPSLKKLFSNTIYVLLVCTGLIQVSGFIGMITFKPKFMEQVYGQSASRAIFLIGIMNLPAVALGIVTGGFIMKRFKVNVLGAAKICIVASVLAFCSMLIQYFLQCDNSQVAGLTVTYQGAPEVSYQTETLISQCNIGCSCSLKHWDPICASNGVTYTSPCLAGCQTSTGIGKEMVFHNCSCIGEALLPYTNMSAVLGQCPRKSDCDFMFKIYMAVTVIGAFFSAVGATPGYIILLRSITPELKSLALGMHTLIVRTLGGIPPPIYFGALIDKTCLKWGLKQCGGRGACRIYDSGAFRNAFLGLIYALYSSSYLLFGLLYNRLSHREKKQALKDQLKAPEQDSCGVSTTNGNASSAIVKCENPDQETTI
Nature of the experiment: Oatp1d1 Transport Assay. On the procedure: (§1) In the inhibition experiments, the cells were preincubated for 20 s with test compounds, followed by a 5-min incubation with [3H]E3S (5 nM) or 30-min incubation with LY (5 μM).

Experiment [2] addresses T2, Solute carrier organic anion transporter family member [3-691] (Zebrafish, UniProt A0A0R4IW35).
T2 construct: 3-691
T2 sequence (A0A0R4IW35 whole entry): T1 sequence (A0A8M9PU70 whole entry)
Nature of the experiment: Oatp1d1 Transport Assay. The procedure:
as §1

What is called Ki is a dissociation constant, usually derived from enzyme kinetics or from competition with a known ligand. Read a low Ki as higher affinity. In the case of `CCCN(CCC)S(=O)(=O)c1ccc(C(=O)O)cc1`, the Ki in experiment [1] was 26 µM.
`CC[C@H]1OC(=O)[C@H](C)[C@@H](O[C@H]2C[C@@](C)(OC)[C@@H](O)[C@H](C)O2)[C@H](C)[C@@H](O[C@@H]2O[C@H](C)C[C@H](N(C)C)[C@H]2O)[C@](C)(O)C[C@@H](C)C(=O)[C@H](C)[C@@H](O)[C@]1(C)O` returned a Ki in experiment [1] of 882 µM.
On the same count and under the same terms, with `C[C@H](CCC(=O)NCCS(=O)(=O)O)[C@H]1CC[C@H]2[C@@H]3[C@H](O)C[C@@H]4C[C@H](O)CC[C@]4(C)[C@H]3CC[C@]12C` the figure was 3.4 µM; with `CC(=O)[C@H]1CC[C@H]2[C@@H]3CCC4=CC(=O)CC[C@]4(C)[C@H]3CC[C@]12C`, 9.06 µM.
`CCOC(=O)C(C)(C)Oc1ccc(Cl)cc1` [2-(4-Chlorophenoxy)-2-methylpropanoic acid ethyl ester] showed a Ki in experiment [2] of 345 µM.
Consider `CC(=O)C[C@H](c1ccccc1)c1c(O)c2ccccc2oc1=O` [2-hydroxy-3-(3-oxo-1-phenylbutyl)-4H-chromen-4-one], for which the affinity in experiment [1] corresponds to a Ki of 0.36 µM.
`Cc1ccc(C)c(OCCCC(C)(C)C(=O)O)c1` [5-(2,5-dimethylphenoxy)-2,2-dimethylpentanoic acid]: the Ki in experiment [1] amounted to 7.44 µM.
`C[C@]12C[C@H](O)[C@H]3[C@@H](CCC4=CC(=O)CC[C@@]43C)[C@@H]1CC[C@@H]2C(=O)CO` [11beta,21-dihydroxypregn-4-ene-3,20-dione] gave an inhibitory constant (Ki) in experiment [1] of 105 µM.
The same measure, in the same setting: then `C[C@]12CC[C@@H]3c4ccc(O)cc4CC[C@H]3[C@@H]1CC[C@@H]2O[C@@H]1O[C@H](C(=O)O)[C@@H](O)[C@H](O)[C@H]1O` [17beta-Estradiol-17-(beta-D-glucuronide)], with 3.26 µM; and `CC[C@H](C)C(=O)O[C@H]1C[C@H](O)C=C2C=C[C@H](C)[C@H](CC[C@@H](O)C[C@@H](O)CC(=O)O)[C@H]21` [(3R,5R)-7-[(1S,2S,6S,8S,8aR)-6-hydroxy-2-methyl-8-{[(2S)-2-methylbutanoyl]oxy}-1,2,6,7,8,8a-hexahydronaphthalen-1-yl]-3,5-dihydroxyheptanoic acid], with 9.27 µM; and `C[C@]12CCC(=O)C=C1CC[C@@H]1[C@@H]2CC[C@]2(C)C(=O)CC[C@@H]12` [Androst-4-en-3,17-dione, 2], with 3.78 µM.
As to `C=CC1=C(C)/C(=C/c2[nH]c(Cc3[nH]c(/C=C4\NC(=O)C(C)=C4C=C)c(C)c3CCC(=O)O)c(CCC(=O)O)c2C)NC1=O` [BILIRUBIN], in experiment [1], the inhibitory constant (Ki) is 14.5 µM.
The same measure, in the same setting: with `O=C1OC(c2ccc(O)c(S(=O)(=O)O)c2)(c2ccc(O)c(S(=O)(=O)O)c2)c2c(Br)c(Br)c(Br)c(Br)c21` [BROMOSULFOPHTHALEIN] the figure was 2.99 µM; with `CC(C)(Oc1ccc(CCNC(=O)c2ccc(Cl)cc2)cc1)C(=O)O` [Cedur], 40.4 µM; with `C[C@H](CCC(=O)O)[C@H]1CC[C@H]2[C@@H]3[C@H](O)C[C@@H]4C[C@H](O)CC[C@]4(C)[C@H]3C[C@H](O)[C@]12C` [Cholic Acid], 141 µM.
`C[C@]12CCC(=O)C[C@@H]1CC[C@@H]1[C@@H]2CC[C@]2(C)[C@@H](O)CC[C@@H]12` [DHT] yielded an inhibition constant Ki in experiment [1] of 23.4 µM.
The same measure, in the same setting: with `CCCCC[C@H](O)/C=C/[C@H]1[C@H](O)CC(=O)[C@@H]1C/C=C\CCCC(=O)O` [DINOPROSTONE] the figure was 227 µM.
On the same count and under the same terms, with `C[C@H](CCC(=O)O)[C@H]1CC[C@H]2[C@@H]3CC[C@@H]4C[C@H](O)CC[C@]4(C)[C@H]3C[C@H](O)[C@]12C` [Deoxycholic Acid] the figure was 9.94 µM; with `C[C@]12CC[C@@H]3c4ccc(OS(=O)(=O)O)cc4CC[C@H]3[C@@H]1CCC2=O` [Estrone Sulphate], 1.01 µM.
Compound `CC(C)OC(=O)C(C)(C)Oc1ccc(C(=O)c2ccc(Cl)cc2)cc1` [Finofibrate] returned a Ki in experiment [1] of 54.4 µM.
Still for that read-out and setting: then `CN(Cc1cnc2nc(N)nc(N)c2n1)c1ccc(C(=O)N[C@@H](CCC(=O)O)C(=O)O)cc1` [MTX], with 222 µM.
The same measure, in the same setting: then `CO[C@H]1/C=C/O[C@@]2(C)Oc3c(C)c(O)c4c(c3C2=O)C(=O)/C(=C/NN2CCN(C)CC2)C(=C4O)NC(=O)/C(C)=C\C=C\[C@H](C)[C@H](O)[C@@H](C)[C@@H](O)[C@@H](C)[C@H](OC(C)=O)[C@@H]1C` [Rifampicin], with 12.7 µM; and `C[C@]12CC[C@H]3[C@@H](CCC4=CC(=O)CC[C@@]43C)[C@@H]1CC[C@@H]2O` [Testosterone, 1], with 30 µM; and `C[C@]12CC[C@@H]3c4ccc(O)cc4CC[C@H]3[C@@H]1CC[C@@H]2O` [[2,4,6,7-3H]-17beta-estradiol], with 2.83 µM.
The same measure, in the same setting: then `C[C@]12CCC(=O)C=C1CC[C@@H]1[C@@H]2[C@@H](O)C[C@@]2(C)[C@H]1CC[C@]2(O)C(=O)CO` [[3H]cortisol], with 120 µM; and `N[C@@H](Cc1cc(I)c(Oc2ccc(O)c(I)c2)c(I)c1)C(=O)O` [triothyrone], with 42.7 µM.
